Measured values published in patent US20210038607A1, “OXADIAZOLYLTHIOPHENE DERIVATIVES USEFUL AS HISTONE DEACETYLASE INHIBITORS” (Karus Therapeutics Limited, priority 2018, published 2021).

Experiments:
Human HDAC1 = biological target: T1, Human HDAC1 (Homo sapiens, UniProt Q13547); test: HDAC1 biochemical assay, AMC-labeled peptide substrate; conditions: read-out: HDAC Isoform IC50 (nM) 1
T1 construct: full length with C-terminal His-tag and C-terminal FLAG-tag; His (C); FLAG (C); host or cells: baculovirus expression system
T1 sequence (Q13547 whole entry, canonical isoform): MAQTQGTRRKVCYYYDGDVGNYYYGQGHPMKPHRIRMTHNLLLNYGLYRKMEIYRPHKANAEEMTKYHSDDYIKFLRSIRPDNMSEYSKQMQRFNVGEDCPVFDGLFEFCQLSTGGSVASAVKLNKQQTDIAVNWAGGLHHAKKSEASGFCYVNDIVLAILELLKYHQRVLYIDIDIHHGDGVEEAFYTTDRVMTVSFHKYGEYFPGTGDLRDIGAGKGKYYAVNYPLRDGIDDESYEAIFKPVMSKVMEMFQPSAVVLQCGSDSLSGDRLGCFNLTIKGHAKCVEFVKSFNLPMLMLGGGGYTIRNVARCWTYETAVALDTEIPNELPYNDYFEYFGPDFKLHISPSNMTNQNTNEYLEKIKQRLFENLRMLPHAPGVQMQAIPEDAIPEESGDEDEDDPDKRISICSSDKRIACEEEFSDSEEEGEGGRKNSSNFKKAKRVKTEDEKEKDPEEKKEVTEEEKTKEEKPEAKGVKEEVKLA
Summary of the method: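 Two-step fluorogenic read: HDAC1 deacetylates 50 μM acetyl-lysine AMC peptide RHKK(Ac)AMC for 1 h at 30° C (pH 8.0, 1% DMSO, with compound), then developer digests the product for fluorescence at Ex/Em 360/460. Enzyme is full-length human, His/FLAG-tagged, insect-cell expressed, at 0.3 ng/ul.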

Human HDAC7 = biological target: T2, Human HDAC7 (Homo sapiens, UniProt Q8WUI4); test: HDAC7 biochemical assay, class IIa-specific substrate; conditions: read-out: HDAC Isoform IC50 (nM) 7
T2 construct: (a.a. 518-end) with N-terminal GST tag; GST (N); host or cells: baculovirus expression system
T2 sequence (Q8WUI4 518-952 limits assumed): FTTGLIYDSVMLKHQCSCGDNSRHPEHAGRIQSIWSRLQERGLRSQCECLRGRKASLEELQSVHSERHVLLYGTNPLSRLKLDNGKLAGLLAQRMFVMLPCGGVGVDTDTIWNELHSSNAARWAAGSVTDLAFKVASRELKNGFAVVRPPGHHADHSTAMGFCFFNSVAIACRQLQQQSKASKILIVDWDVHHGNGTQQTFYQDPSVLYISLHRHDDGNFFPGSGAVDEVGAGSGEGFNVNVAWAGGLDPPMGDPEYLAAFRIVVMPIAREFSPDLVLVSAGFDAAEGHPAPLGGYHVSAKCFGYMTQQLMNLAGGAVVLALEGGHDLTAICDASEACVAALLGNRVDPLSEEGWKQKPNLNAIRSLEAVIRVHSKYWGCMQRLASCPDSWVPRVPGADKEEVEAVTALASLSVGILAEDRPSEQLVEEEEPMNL
Summary of the method: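 Two-step fluorogenic readout: class IIa-selective trifluoroacetyl-lysine AMC substrate (50 μM) deacetylated by N-terminal GST-HDAC7 fragment (0.001 ng/ul), then digested by developer, Ex/Em 360/460. Reaction: 30 min, room temperature, Tris-HCl pH 8.0, NaCl/KCl/MgCl2, 1 mg/mL BSA, 1% DMSO.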

Structure (SMILES)	IC50 (Human HDAC1) [nM]	IC50 (Human HDAC7) [nM]
O=C(c1cnnc(N(Cc2ccc(-c3noc(C(F)(F)F)n3)s2)c2cnccn2)c1)N1CCC(F)(F)CC1 [Example FY, 5-(4,4-Difluoropiperidine-1-carbonyl)-N-(pyrazin-2-yl)-N-({5-[5-(trifluoromethyl)-1,2,4-oxadiazol-3-yl]thiophen-2-yl}methyl)pyridazin-3-amine]	> 10000	≤ 10000
FC(F)(F)c1nc(-c2ccc(CN(c3ccccn3)c3ccccn3)s2)no1 [Example U, N-(Pyridin-2-yl)-N-({5-[5-(trifluoromethyl)-1,2,4-oxadiazol-3-yl]thiophen-2-yl}methyl)pyridin-2-amine]	> 10000	≤ 10000
O=C(O)c1cnnc(N(Cc2sc(-c3noc(C(F)(F)F)n3)cc2F)c2cnccn2)c1 [Example FA, 6-[({3-fluoro-5-[5-(trifluoromethyl)-1,2,4-oxadiazol-3-yl]thiophen-2-yl}methyl)(pyrazin-2-yl)amino]pyridazine-4-carboxylic acid]	> 10000	≤ 1000
FC(F)(F)c1nc(-c2ccc(CN(c3cnccn3)c3cc(N4CCCC4)cnn3)s2)no1 [Example FQ, N-(Pyrazin-2-yl)-5-(pyrrolidin-1-yl)-N-({5-[5-(trifluoromethyl)-1,2,4-oxadiazol-3-yl]thiophen-2-yl}methyl)pyridazin-3-amine]	> 10000	≤ 10000
O=C(c1cnnc(N(Cc2ccc(-c3noc(C(F)(F)F)n3)s2)c2cnccn2)c1)N1C2CCC1COC2 [Example GB, 5-{3-Oxa-8-azabicyclo[3.2.1]octane-8-carbonyl}-N-(pyrazin-2-yl)-N-({5-[5-(trifluoromethyl)-1,2,4-oxadiazol-3-yl]thiophen-2-yl}methyl)pyridazin-3-amine]	> 10000	≤ 10000
Fc1ccnc(N(Cc2ccc(-c3noc(C(F)(F)F)n3)s2)c2cnccn2)c1 [Example AG, N-(4-Fluoropyridin-2-yl)-N-({5-[5-(trifluoromethyl)-1,2,4-oxadiazol-3-yl]thiophen-2-yl}methyl)pyrazin-2-amine]	> 10000	≤ 10000
FC(F)(F)c1nc(-c2ccc(CN(c3cnccn3)c3cc(CN4CCCC4)ccn3)s2)no1 [Example GG, N-{4-[(Pyrrolidin-1-yl)methyl]pyridin-2-yl}-N-({5-[5-(trifluoromethyl)-1,2,4-oxadiazol-3-yl]thiophen-2-yl}methyl)pyrazin-2-amine]	> 10000	≤ 1000
CC1(c2cnnc(N(Cc3ccc(-c4noc(C(F)(F)F)n4)s3)c3cnccn3)c2)COC1 [Example GT, 5-(3-Methyloxetan-3-yl)-N-(pyrazin-2-yl)-N-({5-[5-(trifluoromethyl)-1,2,4-oxadiazol-3-yl]thiophen-2-yl}methyl)pyridazin-3-amine]	> 10000	≤ 10000
Cc1cncc(N(Cc2ccc(-c3noc(C(F)(F)F)n3)s2)c2cnccn2)n1 [Example BP, 6-Methyl-N-(pyrazin-2-yl)-N-({5-[5-(trifluoromethyl)-1,2,4-oxadiazol-3-yl]thiophen-2-yl}methyl)pyrazin-2-amine]	> 10000	≤ 10000
FC(F)(F)c1cnc(N(Cc2ccc(-c3noc(C(F)(F)F)n3)s2)c2cnccn2)cn1 [Example BK, N-(Pyrazin-2-yl)-5-(trifluoromethyl)-N-({5-[5-(trifluoromethyl)-1,2,4-oxadiazol-3-yl]thiophen-2-yl}methyl)pyrazin-2-amine]	> 10000	≤ 10000
CC(F)(F)c1cnnc(N(Cc2ccc(-c3noc(C(F)(F)F)n3)s2)c2cnccn2)c1 [Example GU, 5-(1,1-Difluoroethyl)-N-(pyrazin-2-yl)-N-({5-[5-(trifluoromethyl)-1,2,4-oxadiazol-3-yl]thiophen-2-yl}methyl)pyridazin-3-amine]	> 10000	≤ 10000
COc1cnc(N(Cc2ccc(-c3noc(C(F)(F)F)n3)s2)c2cnccn2)cn1 [Example BI, 5-Methoxy-N-(pyrazin-2-yl)-N-({5-[5-(trifluoromethyl)-1,2,4-oxadiazol-3-yl]thiophen-2-yl}methyl)pyrazin-2-amine]	> 10000	≤ 500
O=C(c1nccnc1N(Cc1ccc(-c2noc(C(F)(F)F)n2)s1)c1cnccn1)N1CC(O)(C(F)(F)F)C1 [Example GQ, 1-{3-[(Pyrazin-2-yl)({5-[5-(trifluoromethyl)-1,2,4-oxadiazol-3-yl]thiophen-2-yl}methyl)amino]pyrazine-2-carbonyl}-3-(trifluoromethyl)azetidin-3-ol]	> 10000	≤ 10000
NC(=O)c1nccnc1N(Cc1ccc(-c2noc(C(F)(F)F)n2)s1)c1cnccn1 [Example GO, 3-[(Pyrazin-2-yl)({5-[5-(trifluoromethyl)-1,2,4-oxadiazol-3-yl]thiophen-2-yl}methyl)amino]pyrazine-2-carboxamide]	> 10000	≤ 10000
FC(F)(F)c1nc(-c2ccc(CN(c3cnccn3)c3cnc(N4CCOCC4)cn3)s2)no1 [Example BM, 5-(Morpholin-4-yl)-N-(pyrazin-2-yl)-N-({5-[5-(trifluoromethyl)-1,2,4-oxadiazol-3-yl]thiophen-2-yl}methyl)pyrazin-2-amine]	≤ 10000	≤ 10000
OC1(c2cnnc(N(Cc3ccc(-c4noc(C(F)(F)F)n4)s3)c3cnccn3)c2)COC1 [Example GW, 3-{6-[(Pyrazin-2-yl)({5-[5-(trifluoromethyl)-1,2,4-oxadiazol-3-yl]thiophen-2-yl}methyl)amino]pyridazin-4-yl}oxetan-3-ol]	> 10000	≤ 1000

The next lines start with the values.

IC50 (Human HDAC1) [nM]	IC50 (Human HDAC7) [nM]	Structure (SMILES)
> 10000	≤ 1000	O=C(c1cnnc(N(Cc2ccc(-c3noc(C(F)(F)F)n3)s2)c2cnccn2)c1)N1CC2(COC2)C1 [Example FZ, 5-{2-Oxa-6-azaspiro[3.3]heptane-6-carbonyl}-N-(pyrazin-2-yl)-N-({5-[5-(trifluoromethyl)-1,2,4-oxadiazol-3-yl]thiophen-2-yl}methyl)pyridazin-3-amine]
> 10000	≤ 500	Cc1nccnc1N(Cc1ccc(-c2noc(C(F)(F)F)n2)s1)c1cnccn1 [Example BE, 3-Methyl-N-(pyrazin-2-yl)-N-({5-[5-(trifluoromethyl)-1,2,4-oxadiazol-3-yl]thiophen-2-yl}methyl)pyrazin-2-amine]
> 10000	≤ 500	FC(F)(F)c1nc(-c2ccc(CN(c3cnccn3)c3cc(-c4ccccn4)cnn3)s2)no1 [Example GM, N-(Pyrazin-2-yl)-5-(pyridin-2-yl)-N-({5-[5-(trifluoromethyl)-1,2,4-oxadiazol-3-yl]thiophen-2-yl}methyl)pyridazin-3-amine]
> 10000	≤ 10000	FC(F)(F)c1cncc(N(Cc2ccc(-c3noc(C(F)(F)F)n3)s2)c2cnccn2)n1 [Example BR, N-(Pyrazin-2-yl)-6-(trifluoromethyl)-N-({5-[5-(trifluoromethyl)-1,2,4-oxadiazol-3-yl]thiophen-2-yl}methyl)pyrazin-2-amine]
> 10000	≤ 10000	O=C(O)c1ccc(N(Cc2sc(-c3noc(C(F)(F)F)n3)cc2F)c2cnccn2)nn1 [Example EZ, 6-[({3-Fluoro-5-[5-(trifluoromethyl)-1,2,4-oxadiazol-3-yl]thiophen-2-yl}methyl)(pyrazin-2-yl)amino]pyridazine-3-carboxylic acid]
≤ 10000	≤ 1000	O=C(c1cnnc(N(Cc2ccc(-c3noc(C(F)(F)F)n3)s2)c2cnccn2)c1)N1CC(O)(C(F)(F)F)C1 [Example GD, 1-{6-[(Pyrazin-2-yl)({5-[5-(trifluoromethyl)-1,2,4-oxadiazol-3-yl]thiophen-2-yl}methyl)amino]pyridazine-4-carbonyl}-3-(trifluoromethyl)azetidin-3-ol]
≤ 10000	≤ 500	O=C(c1ccc(N(Cc2ccc(-c3noc(C(F)(F)F)n3)s2)c2cnccn2)nn1)N1C[C@@H]2C[C@H]1C[S@@+]2[O-] [Example FR, (1S,2R,4S)-5-{6-[(Pyrazin-2-yl)({5-[5-(trifluoromethyl)-1,2,4-oxadiazol-3-yl]thiophen-2-yl}methyl)amino]pyridazine-3-carbonyl}-2-thia-5-azabicyclo[2.2.1]heptan-2-ium-2-olate]
> 10000	≤ 10000	COc1cncc(N(Cc2ccc(-c3noc(C(F)(F)F)n3)s2)c2cnccn2)n1 [Example BQ, 6-Methoxy-N-(pyrazin-2-yl)-N-({5-[5-(trifluoromethyl)-1,2,4-oxadiazol-3-yl]thiophen-2-yl}methyl)pyrazin-2-amine]
≤ 10000	≤ 1000	CC(C)(O)c1cnnc(N(Cc2ccc(-c3noc(C(F)(F)F)n3)s2)c2cnccn2)c1 [Example GS, 2-{6-[(Pyrazin-2-yl)({5-[5-(trifluoromethyl)-1,2,4-oxadiazol-3-yl]thiophen-2-yl}methyl)amino]pyridazin-4-yl}propan-2-ol]
